Laboratory results as given in paper PMC9252588 (Drug Design, Development and Therapy, 2022).
Blank lines part the entries; values can stand above or below the compound they belong to.

How the values were obtained:
[1] = system: rat liver microsomes (RLMs); experiment: Enzymatic kinetics of axitinib inhibition of buspirone metabolism in RLMs; assay type: in vitro ADME
[2] = Pharmacokinetics of buspirone and metabolites with or without axitinib in rats; assay type: in vivo, Sprague–Dawley rats; settings: increased to % of group A
[3] = in vivo; cited from earlier work
[4] = system: buspirone 6′-hydroxylation (formation of 6′-OH buspirone); experiment: in vitro; settings: rat, rat liver microsomes
[5] = system: buspirone N-dealkylation (formation of 1-PP); experiment: in vitro; settings: rat, rat liver microsomes
[6] = Pharmacokinetic pre-experiment: ritonavir before buspirone in rats; assay type: in vivo; settings: ritonavir (positive inhibitor) administered before buspirone

SMILES: CNC(=O)c1ccccc1Sc1ccc2c(/C=C/c3ccccn3)n[nH]c2c1 [axitinib]
α value ([1]; buspirone 6′-hydroxylation): 2.139
α value ([1]; buspirone N-dealkylation): 5.434

AUC(0-t), group B compared with group A [2]: 530%
Cmax, group B compared with group A [2]: 420%
Tmax, group B compared with group A [2]: 150%
Km at 40 min [4]: 23 µM
Km at 40 min [5]: 26.3 µM
SMILES: O=C1CC2(CCCC2)CC(=O)N1CCCCN1CCN(c2ncccn2)CC1 [buspirone, 8-(4-(4-(2-pyrimidinyl)-1-piperizinyl)butyl)-8-azaspiro(4,5)decane-7,9-dione]
absorbed in the alimentary canal [3]: ~100%

SMILES: CC(C)c1nc(CN(C)C(=O)N[C@H](C(=O)N[C@@H](Cc2ccccc2)C[C@H](O)[C@H](Cc2ccccc2)NC(=O)OCc2cncs2)C(C)C)cs1 [ritonavir]
blood concentrations of buspirone [6]: extremely high blood concentrations of buspirone
symptoms compared with the control [6]: symptoms of inhibition of respiration and near-death
